According to patent US12110293B2, “Substituted triazolo quinoxaline derivatives” (GRÜNENTHAL GMBH, priority 2018, dated 2024):

These compounds were tested against T1, glucocorticoid receptor (Homo sapiens, UniProt P04150) (assay: Agonistic mode of action on the glucocorticoid receptor (CHO-Gal4/GR luciferase reporter cell line)). Conditions: range class observed in the agonistic assay or the antagonistic assay (CHO-Gal4/GR reporter cells); table does not say which mode applies per example.
T1 construct: expressed in transfected cells
T1 sequence (P04150 524-758 limits assumed): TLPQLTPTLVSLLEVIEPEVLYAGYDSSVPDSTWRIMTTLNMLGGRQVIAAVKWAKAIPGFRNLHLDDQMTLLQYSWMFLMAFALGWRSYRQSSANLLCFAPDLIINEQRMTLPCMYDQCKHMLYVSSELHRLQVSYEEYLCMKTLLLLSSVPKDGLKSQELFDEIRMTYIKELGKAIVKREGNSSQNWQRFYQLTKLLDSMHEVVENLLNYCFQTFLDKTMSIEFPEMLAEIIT
Assay type: cell-based
Outline: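 CHO cells stably carrying GAL4 DBD–GR ligand-binding-domain fusion and GAL4-UAS firefly luciferase reporter, 5000 cells/well grown 24 h, then compounds added in Opti-MEM at 8 half-log concentrations from 10 μM to 0.003 μM (0.5% DMSO), quadruplicates. Agonist-induced luminescence read on FLIPR Tetra; EC50 calculated.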

IC50 or EC50 (agonist or antagonist mode not specified), < 0.1 µM:
Cc1c[nH]c2c(-c3c(F)cc4c(c3C(F)(F)F)-n3c(C)nnc3C(C)(C)N4)cccc12 [Example 29, 7-fluoro-1,4,4-trimethyl-8-(3-methyl-1H-indol-7-yl)-9-(trifluoromethyl)-4,5-dihydro-[1,2,4]triazolo[4,3-a]quinoxaline]
CC(=O)n1ccc2c(-c3c(F)cc4c(c3F)-n3c(C)nnc3C(C)(C)N4)cc(F)cc21 [Example 4, 1-(4-(7,9-difluoro-1,4,4-trimethyl-4,5-dihydro-[1,2,4]triazolo[4,3-a]quinoxalin-8-yl)-6-fluoro-1H-indol-1-yl)ethanone]
Cc1cc(-c2c(Cl)cc3c(c2C)-n2c(C)nnc2C(C)(C)N3)c2ccn(S(C)(=O)=O)c2c1 [Example 491, 7-Chloro-1,4,4,9-tetramethyl-8-(6-methyl-1-methylsulfonyl-1H-indol-4-yl)-5H-[1,2,4]triazolo[4,3-a] quinoxaline]
Cc1nnc2n1-c1c(cc(F)c(-c3cccc4c3cnn4CC3CC3)c1F)NC2(C)C [Example 235, 8-[1-(Cyclopropyl-methyl)-1H-indazol-4-yl]-7,9-difluoro-1,4,4-trimethyl-5H-[1,2,4]triazolo[4,3-a]quinoxaline]
Cc1c(-c2cccc3c(C)c[nH]c23)c(Cl)cc2c1-n1c(C)nnc1C(C)(C)N2 [Example 358, 7-Chloro-1,4,4,9-tetramethyl-8-(3-methyl-1H-indol-7-yl)-5H-[1,2,4]triazolo[4,3-a]quinoxaline]
Cc1c[nH]c2c(-c3c(F)cc4c(c3Cl)-n3c(C)nnc3C(C)(C)N4)cc(F)cc12 [Example 30]
Cc1c[nH]c2c(-c3c(F)cc4c(c3C3CC3)-n3c(C)nnc3C(C)(C)N4)cccc12 [Example 463, 9-Cyclopropyl-7-fluoro-1,4,4-trimethyl-8-(3-methyl-1H-indol-7-yl)-5H-[1,2,4]triazolo[4,3-a] quinoxaline]
Cc1c(-c2cccc3c(CC(F)(F)F)c[nH]c23)c(F)cc2c1-n1c(C)nnc1C(C)(C)N2 [Example 24, 7-fluoro-1,4,4,9-tetramethyl-8-(3-(2,2,2-trifluoroethyl)-1H-indol-7-yl)-4,5-dihydro-[1,2,4]triazolo[4,3-a]quinoxaline]

IC50 or EC50 (agonist or antagonist mode not specified), 0.1 to 1 µM:
Cc1c[nH]c2c(-c3c(OC(F)F)cc4c(c3F)-n3c(C)nnc3C(C)(C)N4)cccc12 [Example 282, 7-(Difluoro-methoxy)-9-fluoro-1,4,4-trimethyl-8-(3-methyl-1H-indol-7-yl)-5H-[1,2,4]triazolo[4,3-a]quinoxaline]
Cc1nnc2n1-c1c(cc(F)c(-c3cc(F)cc4c3ccn4CCO)c1C(F)(F)F)NC2(C)C [Example 447, 2-[6-Fluoro-4-[7-fluoro-1,4,4-trimethyl-9-(trifluoromethyl)-5H-[1,2,4]triazolo[4,3-a]quinoxalin-8-yl]-1H-indol-1-yl]-ethanol]
COc1cc2c(c(C(F)(F)F)c1-c1cccc3c1ccn3CC(F)F)-n1c(C)nnc1C(C)(C)N2 [Example 500, 8-[1-(2,2-Difluoro-ethyl)-1H-indol-4-yl]-7-methoxy-1,4,4-trimethyl-9-(trifluoromethyl)-5H-[1,2,4]triazolo[4,3-a]quinoxaline]
Cc1cc2c(c(C)c1-c1cc(F)cc3c(C)c[nH]c13)-n1c(C)nnc1C(C)(C)N2 [Example 341, 8-(5-Fluoro-3-methyl-1H-indol-7-yl)-1,4,4,7,9-pentamethyl-5H-[1,2,4]triazolo[4,3-a]quinoxaline]
Cc1nnc2n1-c1c(cc(F)c(-c3cc(C(F)(F)F)cc4[nH]ccc34)c1C(F)(F)F)NC2(C)C [Example 473, 7-Fluoro-1,4,4-trimethyl-9-(trifluoromethyl)-8-[6-(trifluoromethyl)-1H-indol-4-yl]-5H-[1,2,4]triazolo[4,3-a] quinoxaline]
CCc1nnc2n1-c1c(cc(F)c(-c3cccc4cc[nH]c34)c1F)NC2(C)C [Example 11, 1-ethyl-7,9-difluoro-8-(1H-indol-7-yl)-4,4-dimethyl-4,5-dihydro-[1,2,4]triazolo[4,3-a]quinoxaline]
Cc1nnc2n1-c1c(cc(F)c(-c3ccc(F)c4[nH]ncc34)c1F)NC2(C)C [Example 501, 7,9-Difluoro-8-(7-fluoro-1H-indazol-4-yl)-1,4,4-trimethyl-5H-[1,2,4]triazolo[4,3-a]quinoxaline]
CCc1c(-c2cc(F)cc3c2ccn3CCO)c(F)cc2c1-n1c(C)nnc1C(C)(C)N2 [Example 44, 2-(4-(9-ethyl-7-fluoro-1,4,4-trimethyl-4,5-dihydro-[1,2,4]triazolo[4,3-a]quinoxalin-8-yl)-6-fluoro-1H-indol-1-yl)ethanol]
COc1cc2c(c(C(F)(F)F)c1-c1cc(F)cc3c1ccn3C)-n1c(C)nnc1C(C)(C)N2 [Example 517, 8-(6-Fluoro-1-methyl-1H-indol-4-yl)-7-methoxy-1,4,4-trimethyl-9-(trifluoromethyl)-5H-[1,2,4]triazolo [4,3-a]quinoxaline]
COc1c(-c2cccc3c(C)c[nH]c23)c(F)cc2c1-n1c(C)nnc1C(C)(C)N2 [Example 270, 7-Fluoro-9-methoxy-1,4,4-trimethyl-8-(3-methyl-1H-indol-7-yl)-5H-[1,2,4]triazolo[4,3-a]quinoxaline]
Cc1nnc2n1-c1c(cc(F)c(-c3cc(F)cc4c3ccn4CC(F)(F)F)c1F)NC2(C)C [Example 21, 7,9-difluoro-8-(6-fluoro-1-(2,2,2-trifluoroethyl)-1H-indol-4-yl)-1,4,4-trimethyl-4,5-dihydro-[1,2,4]triazolo[4,3-a]quinoxaline]
Cc1nnc2n1-c1c(cc(F)c(-c3ccc(F)c4[nH]ccc34)c1F)NC2(C)C [Example 497, 7,9-Difluoro-8-(7-fluoro-1H-indol-4-yl)-1,4,4-trimethyl-5H-[1,2,4]triazolo[4,3-a]quinoxaline]
Cc1c(-c2cccc3c(C)c[nH]c23)c(OC(F)(F)F)cc2c1-n1c(C)nnc1C(C)(C)N2 [Example 405, 1,4,4,9-Tetramethyl-8-(3-methyl-1H-indol-7-yl)-7-(trifluoromethyloxy)-5H-[1,2,4]triazolo[4,3-a]quinoxaline]
Cc1nnc2n1-c1c(cc(F)c(-c3cc(F)cc4c3cnn4S(C)(=O)=O)c1C(F)F)NC2(C)C [Example 346, 9-(Difluoro-methyl)-7-fluoro-8-(6-fluoro-1-methylsulfonyl-1H-indazol-4-yl)-1,4,4-trimethyl-5H-[1,2,4]triazolo[4,3-a]quinoxaline]
Cc1c(-c2cccc3c(C)c[nH]c23)c(OC(F)F)cc2c1-n1c(C)nnc1C(C)(C)N2 [Example 360, 7-(Difluoro-methoxy)-1,4,4,9-tetramethyl-8-(3-methyl-1H-indol-7-yl)-5H-[1,2,4]triazolo[4,3-a]quinoxaline]
Cc1c(-c2cc(F)cc3c2cnn3S(C)(=O)=O)c(Cl)cc2c1-n1c(C)nnc1C(C)(C)N2 [Example 347, 7-Chloro-8-(6-fluoro-1-methylsulfonyl-1H-indazol-4-yl)-1,4,4,9-tetramethyl-5H-[1,2,4]triazolo[4,3-a]quinoxaline]
CCc1nnc2n1-c1c(cc(F)c(-c3cc(F)cc4c3ccn4CC3CC3)c1C)NC2(C)C [Example 35, 8-(1-(cyclopropylmethyl)-6-fluoro-1H-indol-4-yl)-1-ethyl-7-fluoro-4,4,9-trimethyl-4,5-dihydro-[1,2,4]triazolo[4,3-a]quinoxaline]
COc1c(-c2cccc3c2ccn3S(C)(=O)=O)c(F)cc2c1-n1c(C)nnc1C(C)(C)N2 [Example 248, 7-Fluoro-9-methoxy-1,4,4-trimethyl-8-(1-methylsulfonyl-1H-indol-4-yl)-5H-[1,2,4]triazolo[4,3-a]quinoxaline]

IC50 or EC50 (agonist or antagonist mode not specified), 1 to 15 µM:
Cc1cc2c(c(F)c1-c1cccc3c1ccn3CC(F)F)-n1c(C)nnc1C(C)(C)N2 [Example 392, 8-[1-(2,2-Difluoro-ethyl)-1H-indol-4-yl]-9-fluoro-1,4,4,7-tetramethyl-5H-[1,2,4]triazolo[4,3-a]quinoxaline]
CCc1nnc2n1-c1c(cc(F)c(-c3cccc4c3cnn4C)c1C)NC2(C)C [Example 240, 1-Ethyl-7-fluoro-4,4,9-trimethyl-8-(1-methyl-1H-indazol-4-yl)-5H-[1,2,4]triazolo[4,3-a]quinoxaline]
COc1cc2c(c(F)c1-c1cccc3[nH]ccc13)-n1c(C)nnc1C(C)(C)N2 [Example 256, 9-Fluoro-8-(1H-indol-4-yl)-7-methoxy-1,4,4-trimethyl-5H-[1,2,4]triazolo[4,3-a]quinoxaline]
Cc1ccc(-c2c(F)cc3c(c2C(F)F)-n2c(C)nnc2C(C)(C)N3)c2ccn(S(C)(=O)=O)c12 [Example 512, 9-(Difluoro-methyl)-7-fluoro-1,4,4-trimethyl-8-(7-methyl-1-methylsulfonyl-1H-indol-4-yl)-5H-[1,2,4]triazolo[4,3-a]quinoxaline]
